Experimental findings from patent US8778871B2 (Takeda Pharmaceutical Company Limited, priority 2004, dated 2014) are described below.

Starred links: 1 amine or outer side, 2 acyl side, 3 side chain; linkers in the order of their positions; H or OH if unused. Non-standard residues stand in square brackets, D forms with d. Residues, ends and D or L forms follow the SMILES beside them. *: point of attachment. X3 = O=C(CNC(=S)[C@H](Cc1ccccc1)N[*:1])[*:2]; 1Nal = N[C@@H](Cc1cccc2ccccc12)C(=O)O; 2Nal = N[C@@H](Cc1ccc2ccccc2c1)C(=O)O; Arg(Me) = CNC(=N)NCCC[C@H](N)C(=O)O; Fmoc = O=C(OCC1c2ccccc2-c2ccccc21)*; Cha = N[C@@H](CC1CCCCC1)C(=O)O

For this assay, the target named is T1, hOT7T175 (Homo sapiens, UniProt Q969F8, L364H).
T1 construct: expressed in transfected cells
T1 sequence (Q969F8 whole entry L364H): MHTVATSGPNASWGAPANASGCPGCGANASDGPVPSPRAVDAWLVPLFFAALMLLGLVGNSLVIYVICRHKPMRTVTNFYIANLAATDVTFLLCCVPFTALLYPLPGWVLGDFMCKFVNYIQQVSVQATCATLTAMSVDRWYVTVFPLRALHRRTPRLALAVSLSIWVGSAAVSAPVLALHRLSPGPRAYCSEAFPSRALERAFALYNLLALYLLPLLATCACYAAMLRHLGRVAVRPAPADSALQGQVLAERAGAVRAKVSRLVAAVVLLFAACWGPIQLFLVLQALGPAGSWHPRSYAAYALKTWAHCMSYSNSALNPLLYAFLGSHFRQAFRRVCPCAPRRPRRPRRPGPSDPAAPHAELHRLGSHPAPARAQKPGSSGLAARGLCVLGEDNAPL
Description: Intracellular Ca ion level-increasing activity using FLIPR (180 seconds; specific activity to Metastin (1-54)). It counts as cell-based. To be noted: hOT7T175/CHO, relative to Metastin (1-54) = 1.
`CC(C)C[C@H](NC(=O)CNC(=O)[C@H](Cc1ccccc1)NC(=O)[C@H](CO)NC(=O)[C@H](CC(N)=O)NC(=O)[C@H](Cc1c[nH]c2ccccc12)NC(=O)[C@H](CC(N)=O)NC(=O)[C@@H](N)Cc1ccc(O)cc1)C(=O)N[C@@H](CCCNC(=N)N)C(=O)N[C@@H](Cc1ccccc1F)C(N)=O` [Compound No. 19]: the “Specific Act. (intracellular Ca ion level-increasing activity, specific activity to Metastin (1-54))” value is given as 2.

Turning to `CC(=O)N[C@@H](Cc1ccc(O)cc1)C(=O)N[C@@H](CC(N)=O)C(=O)N[C@@H](Cc1c[nH]c2ccccc12)C(=O)N[C@@H](CC(N)=O)C(=O)N[C@@H](CO)C(=O)N[C@@H](Cc1ccccc1)C(=O)NCC(=O)N[C@@H](CC(C)C)C(=O)N[C@@H](CCCNC(=N)N)C(=O)N[C@@H](Cc1ccccc1)C(N)=O` [Compound No. 30], the “Specific Act. (intracellular Ca ion level-increasing activity, specific activity to Metastin (1-54))” value is reported as 10.

For the compound `CC(C)C[C@H](NC(=O)CNC(=O)[C@H](Cc1ccccc1)NC(=O)[C@H](CO)NC(=O)[C@H](CC(N)=O)NC(=O)[C@H](Cc1c[nH]c2ccccc12)NC(=O)[C@H](CC(N)=O)NC(=O)[C@H](Cc1ccc(O)cc1)NC(=O)OCC1c2ccccc2-c2ccccc21)C(=O)N[C@@H](CCCNC(=N)N)C(=O)N[C@@H](Cc1ccccc1)C(N)=O` [Compound No. 31], the “Specific Act. (intracellular Ca ion level-increasing activity, specific activity to Metastin (1-54))” value was found to be 2.

For `CC(C)C[C@H](NC(=O)CNC(=O)[C@H](Cc1ccccc1)NC(=O)[C@H](CO)NC(=O)[C@H](CC(N)=O)NC(=O)[C@H](Cc1c[nH]c2ccccc12)NC(=O)[C@H](CC(N)=O)NC(=O)[C@H](Cc1ccc(O)cc1)NC(=O)[C@H](CC(N)=O)NC(=O)[C@@H]1CCCN1C(=O)[C@@H](N)CC(C)C)C(=O)N[C@@H](CCCNC(=N)N)C(=O)N[C@@H](Cc1ccccc1)C(N)=O` [Compound No. 32, reference compound], the “Specific Act. (intracellular Ca ion level-increasing activity, specific activity to Metastin (1-54))” value is 10.

`CC(C)C[C@H](NC(=O)CNC(=O)[C@H](Cc1ccccc1)NC(=O)[C@H](CO)NC(=O)[C@H](CC(N)=O)NC(=O)[C@H](Cc1c[nH]c2ccccc12)NC(=O)OCC1c2ccccc2-c2ccccc21)C(=O)N[C@@H](CCCNC(=N)N)C(=O)N[C@@H](Cc1ccccc1)C(N)=O` [Compound No. 54] (Fmoc-WNSFGLRF-NH2): the “Specific Act. (intracellular Ca ion level-increasing activity, specific activity to Metastin (1-54))” value is on record as 5.

For `CC(C)C[C@H](NC(=O)CNC(=O)[C@H](Cc1ccccc1)NC(=O)[C@H](CO)NC(=O)[C@H](CC(N)=O)NC(=O)[C@H](Cc1cn(C=O)c2ccccc12)NC(=O)[C@H](CC(N)=O)NC(=O)[C@@H](N)Cc1ccc(O)cc1)C(=O)N[C@@H](CCCNC(=N)N)C(=O)N[C@@H](Cc1ccc(C#N)cc1)C(N)=O` [Compound No. 78, Tyr-Asn-Trp(For)-Asn-Ser-Phe-Gly-Leu-Arg-Phe(4CN)-NH2], the “Specific Act. (intracellular Ca ion level-increasing activity, specific activity to Metastin (1-54))” value amounted to 10.

In the case of `CCCC[C@H](NC(=O)CNC(=O)[C@H](Cc1ccccc1)NC(=O)[C@H](CO)NC(=O)[C@H](CC(N)=O)NC(=O)[C@H](Cc1c[nH]c2ccccc12)NC(=O)[C@H](CC(N)=O)NC(=O)[C@@H](N)Cc1ccc(O)cc1)C(=O)N[C@@H](CCCNC(=N)N)C(=O)N[C@@H](Cc1ccccc1)C(N)=O` [Compound No. 105, Tyr-Asn-Trp-Asn-Ser-Phe-Gly-Nle-Arg-Phe-NH2], the “Specific Act. (intracellular Ca ion level-increasing activity, specific activity to Metastin (1-54))” value came out at 1.

As to `CC(C)C[C@H](NC(=O)CNC(=O)[C@H](Cc1ccccc1)NC(=O)[C@H](CO)NC(=O)[C@H](CC(N)=O)NC(=O)[C@H](Cc1c[nH]c2ccccc12)NC(=O)[C@H](CC(N)=O)NC(=O)[C@@H](N)Cc1ccc(O)cc1)C(=O)N[C@@H](CCCNC(=N)N)C(=O)N[C@@H](Cc1ccc2ccccc2c1)C(N)=O` [Compound No. 110] (H-YNWNSFGLR[2Nal]-NH2), the “Specific Act. (intracellular Ca ion level-increasing activity, specific activity to Metastin (1-54))” value is 20.

On to `CC(C)C[C@H](NC(=O)CNC(=O)[C@H](Cc1ccccc1)NC(=O)[C@H](CO)NC(=O)[C@H](CC(N)=O)NC(=O)[C@H](Cc1c[nH]c2ccccc12)NC(=O)[C@H](CC(N)=O)NC(=O)[C@@H](N)Cc1ccc(O)cc1)C(=O)N[C@@H](CCCNC(=N)N)C(=O)N[C@@H](Cc1c(F)c(F)c(F)c(F)c1F)C(N)=O` [Compound No. 111], for which the “Specific Act. (intracellular Ca ion level-increasing activity, specific activity to Metastin (1-54))” value came to 3.

With `CC(C)C[C@H](NC(=O)CNC(=O)[C@H](Cc1ccccc1)NC(=O)[C@H](CO)NC(=O)[C@H](CC(N)=O)NC(=O)[C@H](Cc1c[nH]c2ccccc12)NC(=O)[C@H](CC(N)=O)NC(=O)[C@@H](N)Cc1ccc(O)cc1)C(=O)N[C@@H](CCCNC(=N)N)C(=O)N[C@@H](CC1CCCCC1)C(N)=O` [Compound No. 112] (H-YNWNSFGLR[Cha]-NH2), the “Specific Act. (intracellular Ca ion level-increasing activity, specific activity to Metastin (1-54))” value worked out at 2.

For `CC(C)C[C@H](NC(=O)CNC(=O)[C@H](Cc1ccccc1)NC(=O)[C@H](CO)NC(=O)[C@H](CC(N)=O)NC(=O)[C@H](Cc1c[nH]c2ccccc12)NC(=O)[C@H](CC(N)=O)NC(=O)[C@@H](N)Cc1ccc(O)cc1)C(=O)N[C@@H](CCCNC(=N)N)C(=O)N[C@@H](Cc1ccc(Cl)cc1)C(N)=O` [Compound No. 130], the “Specific Act. (intracellular Ca ion level-increasing activity, specific activity to Metastin (1-54))” value worked out at 10.

Regarding `CC(C)C[C@H](NC(=O)CNC(=O)[C@H](Cc1ccccc1)NC(=O)[C@H](CO)NC(=O)[C@H](CC(N)=O)NC(=O)[C@H](Cc1c[nH]c2ccccc12)NC(=O)[C@H](CC(N)=O)NC(=O)[C@@H](N)Cc1ccc(O)cc1)C(=O)N[C@@H](CCCNC(=N)N)C(=O)N[C@@H](Cc1ccc(N)cc1)C(N)=O` [Compound No. 131], the “Specific Act. (intracellular Ca ion level-increasing activity, specific activity to Metastin (1-54))” value worked out at 3.

Regarding `CC(C)C[C@H](NC(=O)CNC(=O)[C@H](Cc1ccccc1)NC(=O)[C@H](CO)NC(=O)[C@H](CC(N)=O)NC(=O)[C@H](Cc1c[nH]c2ccccc12)NC(=O)[C@H](CC(N)=O)NC(=O)[C@@H](N)Cc1ccc(O)cc1)C(=O)N[C@@H](CCCNC(=N)N)C(=O)N[C@@H](Cc1ccc([N+](=O)[O-])cc1)C(N)=O` [Compound No. 132], the “Specific Act. (intracellular Ca ion level-increasing activity, specific activity to Metastin (1-54))” value is listed as 10.

With `CC(C)C[C@H](NC(=O)CNC(=O)[C@H](Cc1ccccc1)NC(=O)[C@H](CO)NC(=O)[C@H](CC(N)=O)NC(=O)[C@H](Cc1c[nH]c2ccccc12)NC(=O)[C@H](CC(N)=O)NC(=O)[C@@H](N)Cc1ccc(O)cc1)C(=O)N[C@@H](CCCNC(=N)N)C(=O)N[C@@H](Cc1cccc2ccccc12)C(N)=O` [Compound No. 133] (H-YNWNSFGLR[1Nal]-NH2), the “Specific Act. (intracellular Ca ion level-increasing activity, specific activity to Metastin (1-54))” value is 3.

As for `CNC(=N)NCCC[C@H](NC(=O)[C@H](CC(C)C)NC(=O)CNC(=O)[C@H](Cc1ccccc1)NC(=O)[C@H](CO)NC(=O)[C@H](CC(N)=O)NC(=O)[C@@H](Cc1c[nH]c2ccccc12)NC(=O)[C@H](CC(N)=O)NC(=O)[C@H](N)Cc1ccc(O)cc1)C(=O)N[C@@H](Cc1ccccc1)C(N)=O` [Compound No. 142, D-Tyr-Asn-D-Trp-Asn-Ser-Phe-Gly-Leu-Arg(Me)-Phe-NH2], the “Specific Act. (intracellular Ca ion level-increasing activity, specific activity to Metastin (1-54))” value is 2.

As to `CNC(=N)NCCC[C@H](NC(=O)[C@H](CC(C)C)NC(=O)CNC(=O)[C@H](Cc1ccccc1)NC(=O)[C@H](CO)NC(=O)[C@H](CC(N)=O)NC(=O)[C@@H](Cc1c[nH]c2ccccc12)NC(=O)[C@H](CC(N)=O)NC(=O)[C@@H](N)Cc1ccc(O)cc1)C(=O)N[C@@H](Cc1ccccc1)C(N)=O` [Compound No. 143, Tyr-Asn-D-Trp-Asn-Ser-Phe-Gly-Leu-Arg(Me)-Phe-NH2], the “Specific Act. (intracellular Ca ion level-increasing activity, specific activity to Metastin (1-54))” value is 3.

On to `CC(C)C[C@H](NC(=O)CNC(=O)[C@H](Cc1cccc2ccccc12)NC(=O)[C@H](CO)NC(=O)[C@H](CC(N)=O)NC(=O)[C@H](Cc1c[nH]c2ccccc12)NC(=O)[C@H](CC(N)=O)NC(=O)[C@@H](N)Cc1ccc(O)cc1)C(=O)N[C@@H](CCCNC(=N)N)C(=O)N[C@@H](Cc1ccccc1)C(N)=O` [Compound No. 151, Tyr-Asn-Trp-Asn-Ser-Nal(1)-Gly-Leu-Arg-Phe-NH2] (H-YNWNS[1Nal]GLRF-NH2), for which the “Specific Act. (intracellular Ca ion level-increasing activity, specific activity to Metastin (1-54))” value is listed as 1.

For `CC(C)C[C@H](NC(=O)CNC(=O)[C@H](Cc1ccc(F)cc1)NC(=O)[C@H](CO)NC(=O)[C@H](CC(N)=O)NC(=O)[C@H](Cc1c[nH]c2ccccc12)NC(=O)[C@H](CC(N)=O)NC(=O)[C@@H](N)Cc1ccc(O)cc1)C(=O)N[C@@H](CCCNC(=N)N)C(=O)N[C@@H](Cc1ccccc1)C(N)=O` [Compound No. 154, Tyr-Asn-Trp-Asn-Ser-Phe(4F)-Gly-Leu-Arg-Phe-NH2], the “Specific Act. (intracellular Ca ion level-increasing activity, specific activity to Metastin (1-54))” value was determined as 5.

For `CC(C)C[C@H](NC(=O)CNC[C@H](Cc1ccccc1)NC(=O)[C@H](CO)NC(=O)[C@H](CC(N)=O)NC(=O)[C@H](Cc1c[nH]c2ccccc12)NC(=O)[C@H](CC(N)=O)NC(=O)[C@@H](N)Cc1ccc(O)cc1)C(=O)N[C@@H](CCCNC(=N)N)C(=O)N[C@@H](Cc1ccccc1)C(N)=O` [Compound No. 163, Tyr-Asn-Trp-Asn-Ser-PheΨ(CH2NH)Gly-Leu-Arg-Phe-NH2], the “Specific Act. (intracellular Ca ion level-increasing activity, specific activity to Metastin (1-54))” value is recorded as 1.

As to `CC(C)C[C@H](NC(=O)CNC(=S)[C@H](Cc1ccccc1)NC(=O)[C@H](CO)NC(=O)[C@H](CC(N)=O)NC(=O)[C@H](Cc1c[nH]c2ccccc12)NC(=O)[C@H](CC(N)=O)NC(=O)[C@@H](N)Cc1ccc(O)cc1)C(=O)N[C@@H](CCCNC(=N)N)C(=O)N[C@@H](Cc1ccccc1)C(N)=O` [Compound No. 166, Tyr-Asn-Trp-Asn-Ser-PheΨ(CSNH)Gly-Leu-Arg-Phe-NH2] (H-YNWNS[X3]LRF-NH2), the “Specific Act. (intracellular Ca ion level-increasing activity, specific activity to Metastin (1-54))” value turned out to be 5.

For the compound `CNC(=N)NCCC[C@H](NC(=O)[C@H](CC(C)C)NC(=O)CNC(=O)[C@H](Cc1ccccc1)NC(=O)[C@H](CO)NC(=O)[C@H](CC(N)=O)NC(=O)[C@H](C)NC(=O)[C@H](CC(N)=O)NC(=O)[C@H](N)Cc1ccc(O)cc1)C(=O)N[C@@H](Cc1ccccc1)C(N)=O` [Compound No. 169] (H-[dY]NANSFGL[Arg(Me)]F-NH2), the “Specific Act. (intracellular Ca ion level-increasing activity, specific activity to Metastin (1-54))” value is listed as 2.
